Results: patent US9273043B2, “TRPV1 antagonists including dihydroxy substituent and uses thereof” (Purdue Pharma L.P., priority 2011, dated 2016)
Values after ≈ are worked out from the molar mass of the structure shown. Where two headings read alike, the source gives them in different places.

How the values were obtained:
human TRPV1 [1] = biological target: T1, human TRPV1 (Homo sapiens (Human), UniProt Q8NER1); experiment: pH-based assay, Protocol 2, TRPV1/CHO cells (hpH-CHO), Fura-2 Ca2+ influx; assay type: cell-based; conditions: pH 5.0-5.1 (H2SO4), mean ± SEM
T1 sequence (Q8NER1 whole entry, looked up): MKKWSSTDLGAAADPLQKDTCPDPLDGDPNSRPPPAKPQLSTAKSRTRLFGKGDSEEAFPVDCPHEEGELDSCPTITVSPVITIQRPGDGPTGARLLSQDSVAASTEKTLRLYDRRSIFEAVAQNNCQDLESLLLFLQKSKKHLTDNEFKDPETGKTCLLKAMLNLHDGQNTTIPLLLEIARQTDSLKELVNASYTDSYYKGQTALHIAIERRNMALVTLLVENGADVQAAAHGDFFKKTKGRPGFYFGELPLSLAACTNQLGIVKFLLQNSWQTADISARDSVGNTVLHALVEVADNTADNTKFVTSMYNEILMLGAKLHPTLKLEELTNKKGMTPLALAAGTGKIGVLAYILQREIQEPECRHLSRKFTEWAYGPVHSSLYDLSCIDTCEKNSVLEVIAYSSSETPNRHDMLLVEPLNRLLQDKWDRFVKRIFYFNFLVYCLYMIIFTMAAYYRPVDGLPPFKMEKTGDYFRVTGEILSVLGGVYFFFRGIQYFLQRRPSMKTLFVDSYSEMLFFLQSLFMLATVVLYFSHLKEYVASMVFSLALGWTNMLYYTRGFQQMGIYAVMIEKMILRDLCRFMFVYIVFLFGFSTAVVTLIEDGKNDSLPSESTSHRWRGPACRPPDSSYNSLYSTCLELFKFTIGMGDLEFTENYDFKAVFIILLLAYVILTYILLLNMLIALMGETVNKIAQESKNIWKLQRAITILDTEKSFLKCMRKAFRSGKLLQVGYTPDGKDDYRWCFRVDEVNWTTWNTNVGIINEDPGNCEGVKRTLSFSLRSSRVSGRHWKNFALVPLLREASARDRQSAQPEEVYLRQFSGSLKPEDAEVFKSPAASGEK
Description: For Protocol 2, a Chinese Hamster Ovary cell line (CHO) that has been engineered to constitutively express human recombinant TRPV1 was used (TRPV1/CHO cells). The TRPV1/CHO cell line was generated as described below.
TRPV1/CHO cells were seeded in the 96-well clear-bottom black-wall plate (Nunc) at densities of 1-2×10^4 cells/well and grown in 100 μL of culture medium (alpha-MEM supplemented with 10% FBS, 20 mM HEPES, 1 mg/mL geneticin and 1% antibiotic-antimycotic mixed stock solution) for 1-2 days before the experiment.
(1) Culture medium was removed using an 8-channel-pipette (Rainin, USA) from the 96-well plate and the wells were refilled with 100 μL of loading buffer (20 mM HEPES, 115 mM NaCl, 5.4 mM KCl, 0.8 mM MgCl2, 1.8 mM CaCl2, 13.8 mM D-glucose, 2.5 mM probenecid, pH 7.4) containing 5 μM Fura-2 AM (Dojin, Japan).
(2) The 96-well plate was incubated at 37° C. for 45 min.
(3) The loading buffer was removed from each well. The cells were subsequently washed twice with 150 μL of measuring buffer (20 mM HEPES, 115 mM NaCl, 5.4 mM KCl, 0.8 mM MgCl2, 5.0 mM CaCl2, 13.8 mM D-glucose, 0.1% BSA, pH 7.4) (no probenecid). The wells were then refilled with 80 μL of measuring buffer.
(4) After an incubation at 4° C. for 15 min, the 96-well plate was transferred to a model FDSS-3000 plate reader apparatus (Hamamatsu Photonics K.K., Japan).
(5) The Fura-2 fluorescent intensity was monitored at a wavelength of 340 nm and at 380 nm, respectively, at a rate of 0.5 Hz for a total of 240 seconds. After 16 time points (32 sec) of baseline detection, 20 μL of agonist solution was added to each well. The final volume was 100 μL/well.
(6) Fluorescence intensity ratio refers to the fluorescence intensity at 340 nm over the fluorescence intensity at 380 nm at a particular time point. The baseline was set as the average of the fluorescent intensity ratios for the first 16 time points before the addition of agonist solution. The maximum response was the highest fluorescent intensity ratio during the 60 time points following addition of agonist solution.
(7) Maximal signal ratios from each well were calculated as output data using the FDSS-3000 analysis program. Data were analyzed using Excel (Microsoft) and XLfit (idbs) software.
In an “agonist plate,” two different agonist solutions with different H2SO4 concentrations were used for the pH assay (see, e.g., FIG. 3A of U.S. Patent Application Publication No. US 2009/0170868 A1). For the first half of a 96-well plate one agonist solution was used; for the second half the other agonist solution was used. The agonist solutions were obtained by diluting sulfuric acid (1M H2SO4) with measuring buffer. The concentrations for the two agonist solutions were determined as described above in Section 2 of Protocol 2.
The sulfuric acid concentrations between the two agonist solutions differed by 0.5 mM. In the experiment described in Section 2 of Protocol 2, the sulfuric acid concentrations in the agonist solutions were determined to be 16 mM and 16.5 mM, respectively. After 1:4 dilution of the agonist solutions, the final sulfuric acid concentration was 3.2 mM and 3.3 mM, respectively. The resulting pH value for the pH assay was 5.0 to 5.1.
Test compounds were dissolved in DMSO to yield 1 mM stock solutions. The stock solutions were further diluted using DMSO in […] serial dilution steps with 6 points (1000, 250, 62.5, 15.625, 3.9062, and 0.977 μM). The thereby-obtained solutions were further diluted in measuring buffer (1:100) as 10× stock serial dilutions with a DMSO concentration of 1%. 10 μL of a 10× stock was added into each well of an “antagonist plate” (see step 3.3.(4) below). Thus, the final concentrations of antagonists was as follows: 0.977, 3.906, 15.63, 62.5, 250, and 1000 nM containing 0.1% DMSO (see, e.g., FIG. 3B of U.S. Patent Application Publication No. US 2009/0170868 A1).
Steps (1) and (2) of this Assay were the same as steps 2.2.(1) and 2.2.(2), respectively, of Protocol 2. […]

human TRPV1 [2] = biological target: T1, human TRPV1; experiment: Human TRPV1 heat-based assay, hTRPV1/CHO cells (hHeat-CHO); assay type: cell-based; conditions: temperature ramp 25 to 45 °C, mean ± SEM
Description: Human TRPV1 Heat-based Assay:
CHO cells stably expressing human TRPV1 (hTRPV1) were used. Functional assessment of heat-induced activation of hTRPV1 was carried out in a cell-based Ca^2+ flux assay using ABI7500 Fast Real-Time PCR System as described in Reubish et al., “Functional assessment of temperature-gated ion-channel activity using a real-time PCR machine,” www.BioTechniques.com 47(3):iii-ix (2009), which is hereby incorporated by reference. Briefly, hTRPV1/CHO cells were cultured in growth media in a tissue culture dish at 37° C. in a CO2 incubator. On the day of the assay, culture media were removed and the cells were then detached using 0.05% trypsin at 37° C. with 5% CO2, for 90 s. The detached cells were centrifuged (1000 rpm, 4 min) to remove trypsin-containing supernatant and resuspended in assay buffer (115 mM NaCl, 5.4 mM KCl, 0.8 mM MgCl2.6H2O, 1.8 mM CaCl2.2H2O, 13.8 mM D-glucose, and 20 mM HEPES). Then, the cells were loaded with 5 μM Fluo-4, a Ca^2+ reporter dye, in the presence of 2.5 mM probenecid at 37° C. with 5% CO2, for 45 min. Thereafter, the cells were washed twice with measuring buffer (assay buffer supplemented with 0.1% BSA and 3.2 mM CaCl2) then transferred to a Fast 96-well Reaction Plate (0.1 mL) (Part no. 4346907, MICROAMP, Applied Biosystems, Foster City, Calif.). The cell density was 100,000 cells/24 μL/well. A solution of the compound under test (6 μL/well) was added into each well of the 96-well plate. Thus, the reaction volume per well was 30 μL.
The plates were then placed inside an ABI7500 Fast Real-Time PCR instrument (Applied Biosystems) to read fluorescence at different temperatures using 7500 software, version 2.0.2 (Applied Biosystems). The initial temperature was set at 25° C. for 1 min. followed by a temperature ramp to 45° C. in 100 s to deliver heat to cells. [Ca^2+], response of hTRPV1/CHO cells to heat was determined as: [fluorescence read at 45° C.−fluorescence read at 25° C.].
Compound concentration response curves and IC50 values were analyzed using GraphPad Prism 4 software (GraphPad Software, La Jolla, Calif.).
The IC50 data provided in Table 6 are shown as mean±standard error of the mean; the number of trials conducted for each assay is shown in parentheses except for only a single trial where no number of trials is shown in parentheses.

human TRPV1 [3] = biological target: T1, human TRPV1; experiment: Capsaicin-based assay, Protocol 2, TRPV1/CHO cells (hCAP-CHO), Fluo-4 FLIPR; assay type: cell-based; conditions: 100 nM capsaicin, mean ± SEM
Summary of the method: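 CHO cells stably transfected with human TRPV1 cDNA (G418-selected) were loaded with 3 μM Fluo-4 for 1 h, washed, then read on FLIPR with 15 s baseline before additions. Compound tested at final 100 μM to 1.5625 μM against capsaicin stimulation; calcium fluorescence time course curve-fitted.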

[4] = Aqueous solubility at pH 1.2 and pH 6.8; assay type: physicochemical; conditions: aqueous solution
[5] = In vivo assay of body temperature increase (rectal body temperature); design: species or system rat; conditions: rats, oral, 10 mL/kg of 1 mg/mL in 0.5% methylcellulose; greatest ΔTb versus vehicle control at 0.5, 1 or 2 hrs
Summary of the method: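 Male Crl/SD rats (7 weeks), acclimated and preselected for rectal temperature 37.0–37.7° C., given compound orally once at 1 mg/mL in 0.5% methylcellulose, 10 mL/kg. Rectal temperature by thermistor at 0.5, 1 and 2 h post-dose; ΔTb = treated group mean minus vehicle group mean, maximum across time points reported.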

IC50 (human TRPV1 [1])	IC50 (human TRPV1 [2])	IC50 (human TRPV1 [3])	solubility ([4]; pH 1.2, simulated gastric fluid, read-out: aqueous solubility at pH 1.2)	solubility ([4]; pH 6.8, aqueous buffer, read-out: aqueous solubility at pH 6.8)	ΔTb, body temperature increase [5]	SMILES
0.0006 ± 0.0002 µM	0.0184 ± 0.0008 µM	0.0239 ± 0.0038 µM				C[C@@H]1CN(c2ncc([C@@H](O)CO)cc2F)CCN1C(=O)Nc1nc2ccc(F)cc2s1 [A125(e), (R)-4-(5-((R)-1,2-dihydroxyethyl)-3-fluoropyridin-2-yl)-N-(6-fluorobenzo[d]thiazol-2-yl)-2-methylpiperazine-1-carboxamide]
0.0206 ± 0.0026 µM	0.096 ± 0.014 µM	0.0269 ± 0.0036 µM				C[C@H](O)[C@@H](O)c1cnc(N2CCN(C(=O)Nc3nc4ccc(Cl)cc4s3)CC2)c(F)c1 [C123(r), N-(6-chlorobenzo[d]thiazol-2-yl)-4-(5-((1S,2S)-1,2-dihydroxypropyl)-3-fluoropyridin-2-yl)piperazine-1-carboxamide]
0.0058 ± 0.0007 µM	0.096 ± 0.0024 µM	0.0806 ± 0.0075 µM				C[C@@H]1CN(c2ncc([C@@H](O)CO)cc2F)CCN1C(=O)Nc1nc2ccccc2s1 [A122(e), (R)—N-(benzo[d]thiazol-2-yl)-4-(5-((R)-1,2-dihydroxyethyl)-3-fluoropyridin-2-yl)-2-methylpiperazine-1-carboxamide]
	0.7 µM	0.096 ± 0.018 µM	> 50 µM	17 µM (≈ 7.64 µg/mL)	0.2 °C	C[C@H]1CN(c2ncc([C@H](O)CO)cc2F)CCN1C(=O)Nc1nc2cc(F)ccc2s1 [A155(a), (S)-4-{5-[(S)-1,2-Dihydroxyethyl]-3-fluoropyridin-2-yl}-N-(5-fluorobenzo[d]thiazol-2-yl)-2-methylpiperazine-1-carboxamide]
